Source: BindingDB's records for doi:10.7270/Q2H993J6 (Pcmd, 2008)

These compounds were tested against Coagulation factor XI (Homo sapiens, UniProt P03951) (assay: FXIa inhibitor IC50 values, dose response, biochemical, hits from 1536-well screen (AID 846)). Conditions: pH 7.4; 23 °C.
Coagulation factor XI, sequence (P03951 19-387 limits assumed): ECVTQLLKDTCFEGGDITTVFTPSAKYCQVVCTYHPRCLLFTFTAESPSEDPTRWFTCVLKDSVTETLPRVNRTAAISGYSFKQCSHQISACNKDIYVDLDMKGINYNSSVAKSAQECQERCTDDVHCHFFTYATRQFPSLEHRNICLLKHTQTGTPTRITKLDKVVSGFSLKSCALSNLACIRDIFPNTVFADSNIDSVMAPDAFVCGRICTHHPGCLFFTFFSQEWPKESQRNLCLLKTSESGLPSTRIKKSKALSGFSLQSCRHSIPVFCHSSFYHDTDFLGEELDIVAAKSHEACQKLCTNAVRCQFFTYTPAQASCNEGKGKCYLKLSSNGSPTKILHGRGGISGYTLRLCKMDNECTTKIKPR
Coagulation factor XI, sequence (P03951 388-625 limits assumed): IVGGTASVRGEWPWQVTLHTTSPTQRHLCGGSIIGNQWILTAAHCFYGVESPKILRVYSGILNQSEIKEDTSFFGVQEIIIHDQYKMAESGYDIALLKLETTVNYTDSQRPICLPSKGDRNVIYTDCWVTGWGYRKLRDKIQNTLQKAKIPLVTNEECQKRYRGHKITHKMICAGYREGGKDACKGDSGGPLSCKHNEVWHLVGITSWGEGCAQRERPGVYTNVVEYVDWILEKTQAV
In the case of `CC(C)(C)C(=O)Nc1ccc(C(=O)NN=Cc2ccccc2OC(=O)c2ccccc2)cc1` [SMR000174811], the IC50 is reported as over 50 µM. `C=CCNC(=S)N[N-][CH+]c1ccc(C)c([N+](=O)[O-])c1` [SMR000228955] gave an IC50 of over 50 µM. For `O=C(Nc1nc(-c2ccccc2)cs1)c1ccc(S(=O)(=O)N2CCc3ccccc32)cc1` [SMR000235796], the IC50 was over 50 µM. `Cc1cccc(OCC(O)CN2CC3(C)CC2CC(C)(C)C3)c1` (stereo not drawn) [SMR000249047] was tested, and the IC50 was over 50 µM. Work on `COc1ccc(C=Nn2c(C)cc(C)cc2=O)cc1` [SMR000269659] yielded an IC50 of over 50 µM. `Brc1cccc(CN=Nc2nnn[nH]2)c1` [SMR000279292] was tested, and the IC50 was over 50 µM. Work on `O=C1c2ccc(-c3ccc4c(c3)C(=O)N(CCO)C4=O)cc2C(=O)N1CCO` [SMR000282940] yielded an IC50 of over 50 µM. `COCCNCC(=O)Nc1nc(C)cs1` [SMR000287473] gave an IC50 of over 50 µM. In the case of `CCc1nnc(NC(=O)c2ccc(NC(=O)C(C)C)cc2)s1` [SMR000290444], the IC50 is reported as over 50 µM. `Cc1ccc(CN2C(=O)C(=NNC(=S)Nc3ccccc3F)c3cc(S(=O)(=O)N4CCOCC4)ccc32)cc1` [SMR000314855] gave an IC50 of over 50 µM. Compound `O=C(c1cc(Cl)nc2ccccc12)N1CCc2ccccc2C1` [SMR000347901] has an IC50 of over 50 µM. `O=C(Cn1[nH]c(=O)c2ccccc2c1=O)Nc1cccc(S(=O)(=O)N2CCCCCC2)c1` [SMR000369234] was tested, and the IC50 was over 50 µM. With `COc1ccccc1NS(=O)(=O)c1ccc(O)c(C(=O)OCC(=O)c2ccc(Cl)cc2Cl)c1` [SMR000369457] the IC50 was over 50 µM. `COc1ccc(NCC(=O)Nc2cc(S(=O)(=O)N3CCOCC3)ccc2N2CCOCC2)c(OC)c1` [SMR000371196] was tested, and the IC50 was 6.52 µM. Work on `CCOC(=O)c1sc2ncn(N=Cc3ccc(O)cc3)c(=O)c2c1C` [SMR000371630] yielded an IC50 of over 50 µM. In the case of `Cc1cccc(OCC(=O)NN=Cc2ccccc2C(=O)O)c1` [SMR000372421], the IC50 is reported as over 50 µM. Work on `COc1cc(C(=O)OCC(C)=O)ccc1OCc1c(C)noc1C` [SMR000377658] yielded an IC50 of over 50 µM. `C=C(C)CNC(=S)NN=C(C)c1cccc(NC(C)=O)c1` [SMR000384154] showed an IC50 of over 50 µM. Work on `CC1=CC(=NNC(=S)Nc2cccnc2)CC(C)(C)C1` [SMR000385739] yielded an IC50 of over 50 µM. `CCCCCCCc1c(O)nc(SCCN(C)C)[nH]c1=O` [SMR000414668] was tested, and the IC50 was 14 µM. For `COc1cc(C2SCC(=O)N2c2c(C)n(C)n(-c3ccccc3)c2=O)ccc1O` (stereo not drawn) [SMR000414946], the IC50 was over 50 µM. `O=C(O)CCCC(=O)N1N=C(c2ccccc2)CC1c1cccs1` (stereo not drawn) [SMR000414955] showed an IC50 of over 50 µM. For `Cc1cc(/C=C2\SC(=S)N(C)C2=O)c(C)n1-c1cccc(O)c1` [SMR000415846], the IC50 was over 50 µM. In the case of `O=[N+]([O-])c1ccc(OCCO)c(P(=O)(c2ccccc2)c2ccccc2)c1` [SMR000420001], the IC50 is reported as over 50 µM. Compound `CCC1CCC2(CC1)SCC(=O)N2c1ccccc1` (stereo not drawn) [SMR000425321] has an IC50 of over 50 µM. In the case of `O=C1SCCC1NC(=O)C(c1ccccc1)c1ccccc1` (stereo not drawn) [SMR000425361], the IC50 is reported as over 50 µM. Compound `CCCn1cc(C(=O)OCC)c(=O)c2cc(F)c(F)cc21` [SMR000427606] has an IC50 of over 50 µM. `Cn1nnc(CC[N+](C)(C)C)n1` [SMR000427769] gave an IC50 of over 50 µM. Work on `Cc1nn(C)c(C)c1C=C(C(=O)C(C)C)n1cncn1` [SMR000427822] yielded an IC50 of over 50 µM. `O=C1OC(Nc2ccc(F)c([N+](=O)[O-])c2)c2ccccc21` (stereo not drawn) [SMR000434389] gave an IC50 of over 50 µM. `O=C1OCC2OC(O)C(O)C(O)C2OC(=O)c2cc(O)c(O)c(O)c2-c2c(O)c(O)c3oc(=O)c4c(c(O)c(O)c5oc(=O)c2c3c54)-c2c1cc(O)c(O)c2O` (stereo not drawn) [SMR000445568] showed an IC50 of 6.08 µM. Compound `CN1CCN(S(=O)(=O)Cc2ccc(Cl)cc2)CC1` [SMR000456888] has an IC50 of over 50 µM. Work on `COc1ccc(Cl)cc1NC(=O)Nc1cn(C)nc1C` [SMR000458292] yielded an IC50 of over 50 µM. `Cc1ccc(C(=O)NCC(=O)OC(C)C(=O)Nc2ccc(N3CCOCC3)cc2)s1` (stereo not drawn) [[1-(4-morpholin-4-ylanilino)-1-oxopropan-2-yl] 2-[(5-methylthiophene-2-carbonyl)amino]acetate] was tested, and the IC50 was over 50 µM. `O=C(COC(=O)c1cc(=O)c2ccccc2o1)NC1CCCCC1` [[2-(cyclohexylamino)-2-oxidanylidene-ethyl] 4-oxidanylidenechromene-2-carboxylate] showed an IC50 of over 50 µM. In the case of `COc1ccc(C)cc1NC(=O)COC(=O)C1CCN(C(=O)c2ccc(Cl)cc2)CC1` [[2-[(2-methoxy-5-methyl-phenyl)amino]-2-oxidanylidene-ethyl] 1-(4-chlorophenyl)carbonylpiperidine-4-carboxylate], the IC50 is reported as over 50 µM. `O=C(COC(=O)CCc1nc2ccccc2c(=O)[nH]1)Nc1ccc(Cl)cn1` [[2-[(5-chloropyridin-2-yl)amino]-2-oxoethyl] 3-(4-oxo-1H-quinazolin-2-yl)propanoate] gave an IC50 of over 50 µM. Work on `Cc1ccc(NS(=O)(=O)c2ccc(C(=O)OCC(=O)Nc3cc(C)on3)cc2)cc1` [[2-[(5-methyl-1,2-oxazol-3-yl)amino]-2-oxoethyl] 4-[(4-methylphenyl)sulfamoyl]benzoate] yielded an IC50 of over 50 µM. `Cc1ccc(C(=O)ON=C2CCS(=O)(=O)c3sccc32)cc1` [[[7,7-bis(oxidanylidene)-5,6-dihydrothieno[2,3-b]thiopyran-4-ylidene]amino] 4-methylbenzoate] was tested, and the IC50 was 3.46 µM. In the case of `CCOC(=O)c1c(C)n(C)c2ccc(OC)c(NC(=O)CCN3CCC(Cc4ccccc4)CC3)c12` [ethyl 5-methoxy-1,2-dimethyl-4-[3-[4-(phenylmethyl)piperidin-1-yl]propanoylamino]indole-3-carboxylate], the IC50 is reported as over 50 µM. With `COC(=O)c1cccc(NC(=O)CSc2nnc[nH]2)c1` [methyl 3-{[(4H-1,2,4-triazol-3-ylthio)acetyl]amino}benzoate] the IC50 was over 50 µM. Work on `NC(=O)NOCc1ccccc1` [phenylmethoxyurea] yielded an IC50 of over 50 µM. With `CCN(CC)CCNC(=O)c1ccc(NC(=O)c2cccc(S(=O)(=O)Nc3ccc(C)cc3)c2)cc1` [potassium;[3-[[4-[2-(diethylamino)ethylcarbamoyl]phenyl]carbamoyl]phenyl]sulfonyl-(4-methylphenyl)azanide] the IC50 was over 50 µM.
